# Test results from ChEMBL document CHEMBL1201862, “PubChem BioAssay data set” (2004).
#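 Values below derive from 48-hour exposures of cells grown in 96-well plates, with endpoints linearly interpolated between the two concentrations bracketing the appropriate inhibition level. At the GI50, growth is halved.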 Calls of active or inactive are those of the source. No stated cut-off is given here; in the data, active = GI50 up to about 1.1 µM and inactive = higher.
# Tests used:
# Assay in all cases: inhibition of tumour cell growth, NCI panel, 48 h
# [1] = system: HOP-18
# [2] = system: SNB-78
# [3] = system: DLD-1
# [4] = system: M19-MEL
# [5] = system: KM-20L2
# [6] = system: XF498
# [7] = system: DMS-114
# [8] = system: DMS-273
# [9] = system: RXF 631
SMILES,GI50 [1],GI50 [2],GI50 [3],GI50 [4],GI50 [5],GI50 [6],GI50 [7],GI50 [8],GI50 [9]
CCOC(=O)C[C@@]12CCCN[C@]1(C)CCc1ccccc12,> 100 µM (inactive),> 100 µM (inactive),> 100 µM (inactive),> 100 µM (inactive),> 100 µM (inactive),> 100 µM (inactive),–,–,–
CC1=C(C#N)C(=O)CC(c2ccc(Cl)cc2)N(C)N1 (centres undefined),24.4 µM (inactive),> 100 µM (inactive),> 100 µM (inactive),–,–,> 100 µM (inactive),> 100 µM (inactive),–,–
O=C(O)CCC(NC(=O)c1ccc(Nc2nc3ccccc3nc2-c2cccs2)cc1)C(=O)O (centres undefined),> 100 µM (inactive),> 100 µM (inactive),> 100 µM (inactive),> 100 µM (inactive),> 100 µM (inactive),> 100 µM (inactive),> 100 µM (inactive),> 100 µM (inactive),> 100 µM (inactive)
C#CCN(N=O)C(=O)ON1C(=O)CCC1=O,> 100 µM (inactive),> 100 µM (inactive),> 100 µM (inactive),> 100 µM (inactive),> 100 µM (inactive),–,> 100 µM (inactive),> 100 µM (inactive),–
Cc1nc2cc(Nc3ccccc3C(=O)O)ccc2s1,88.9 µM (inactive),–,> 100 µM (inactive),> 100 µM (inactive),> 100 µM (inactive),–,> 100 µM (inactive),> 100 µM (inactive),–
O=C1Nc2ccc(Cl)c(I)c2C1=O,–,–,16.9 µM (inactive),11.7 µM (inactive),19.7 µM (inactive),18.3 µM (inactive),17.5 µM (inactive),16.5 µM (inactive),–
COc1ccc(/C=C(\Cl)c2ccc(OC)c(OC)c2)cc1OC,–,–,> 100 µM (inactive),> 100 µM (inactive),> 100 µM (inactive),–,> 100 µM (inactive),> 100 µM (inactive),–
CCN(CC)CCSc1c2ccccc2nc2c(OC)ccc(OC)c12,–,5.31 µM (inactive),1.99 µM (inactive),8 µM (inactive),3.39 µM (inactive),2.42 µM (inactive),1.63 µM (inactive),5.08 µM (inactive),2.93 µM (inactive)
O=S1(=O)c2cc(S(=O)(=O)n3ccnc3)ccc2NC2=NCCCN21,42.2 µM (inactive),–,28.1 µM (inactive),35.3 µM (inactive),22.3 µM (inactive),–,22.1 µM (inactive),–,–
CS(=O)(=O)OCCN(CCOS(C)(=O)=O)c1ccc(/C=N/c2ccc3oc(=O)ccc3c2)cc1,–,2.12 µM (inactive),–,13.2 µM (inactive),2.64 µM (inactive),–,0.714 µM (active),–,–
O=C(O)C1(C(=O)O)CC1,> 100 µM (inactive),> 100 µM (inactive),> 100 µM (inactive),> 100 µM (inactive),> 100 µM (inactive),> 100 µM (inactive),> 100 µM (inactive),> 100 µM (inactive),> 100 µM (inactive)
CS(=O)(=O)c1ccc(-c2cc(-c3ccc(S(C)(=O)=O)cc3)[n+](-c3cc(-c4ccc(S(C)(=O)=O)cc4)c([O-])c(-c4ccc(S(C)(=O)=O)cc4)c3)c(-c3ccc(S(C)(=O)=O)cc3)c2)cc1,> 100 µM (inactive),> 100 µM (inactive),> 100 µM (inactive),> 100 µM (inactive),> 100 µM (inactive),–,> 100 µM (inactive),> 100 µM (inactive),> 100 µM (inactive)
Cc1ccccc1C(C#N)C(=O)C(=O)Nc1nc([N+](=O)[O-])cs1 (centres undefined),> 100 µM (inactive),> 100 µM (inactive),> 100 µM (inactive),> 100 µM (inactive),> 100 µM (inactive),> 100 µM (inactive),> 100 µM (inactive),–,> 100 µM (inactive)
Oc1ccc(O)c(-n2cccn2)c1-n1cccn1,–,> 100 µM (inactive),> 100 µM (inactive),35.8 µM (inactive),> 100 µM (inactive),> 100 µM (inactive),> 100 µM (inactive),> 100 µM (inactive),–
CCc1ccccc1NC(=O)CCc1nnc(S)[nH]1,–,> 100 µM (inactive),> 100 µM (inactive),> 100 µM (inactive),> 100 µM (inactive),> 100 µM (inactive),> 100 µM (inactive),> 100 µM (inactive),> 100 µM (inactive)
O=C(O)CNS(=O)(=O)c1ccc(NC(=O)c2ccccc2[N+](=O)[O-])cc1,> 100 µM (inactive),–,> 100 µM (inactive),> 100 µM (inactive),> 100 µM (inactive),> 100 µM (inactive),–,> 100 µM (inactive),–
CC1=CCCC(OC(N)=O)C1 (centres undefined),> 100 µM (inactive),> 100 µM (inactive),> 100 µM (inactive),> 100 µM (inactive),> 100 µM (inactive),> 100 µM (inactive),–,> 100 µM (inactive),> 100 µM (inactive)
CCOC(=O)C1C2CCC(C2)C1(CCl)C(=O)OCC (centres undefined),> 100 µM (inactive),–,–,> 100 µM (inactive),> 100 µM (inactive),–,> 100 µM (inactive),> 100 µM (inactive),> 100 µM (inactive)
FC(F)(F)c1ccccc1/C=N/C12CC3CC(CC(C3)C1)C2,–,> 100 µM (inactive),–,> 100 µM (inactive),> 100 µM (inactive),> 100 µM (inactive),> 100 µM (inactive),> 100 µM (inactive),–
C=CC(C)(C)[C@@]12CC3C(=O)N[C@@H](Cc4ccccc4)C(=O)N3[C@@H]1N(C(C)=O)c1ccccc12 (some centres undefined),64 µM (inactive),> 100 µM (inactive),66.2 µM (inactive),87.5 µM (inactive),> 100 µM (inactive),> 100 µM (inactive),75.3 µM (inactive),61.7 µM (inactive),58.7 µM (inactive)
O=C(NCc1ccccc1)c1cc2cc(O)c(O)cc2cn1,13.8 µM (inactive),50.5 µM (inactive),36.7 µM (inactive),20.1 µM (inactive),29.4 µM (inactive),28.4 µM (inactive),4.48 µM (inactive),4.7 µM (inactive),–
COC(=O)CCC12CCC(=O)C1[C@@H](C(=O)OC)C[C@H]2C(=O)OC (some centres undefined),> 100 µM (inactive),> 100 µM (inactive),> 100 µM (inactive),> 100 µM (inactive),> 100 µM (inactive),> 100 µM (inactive),> 100 µM (inactive),> 100 µM (inactive),> 100 µM (inactive)
CSc1nc(NC2OCC(OC(C)=O)C(OC(C)=O)C2OC(C)=O)c(/N=C\C=N\c2c(NC3OCC(OC(C)=O)C(OC(C)=O)C3OC(C)=O)nc(SC)[nH]c2=O)c(=O)[nH]1 (centres undefined),> 100 µM (inactive),> 94.6 µM (inactive),> 100 µM (inactive),> 100 µM (inactive),> 100 µM (inactive),–,> 100 µM (inactive),> 100 µM (inactive),74 µM (inactive)
N#CC(C#N)=C(C(C#N)C#N)C(C#N)C#N,–,> 100 µM (inactive),> 100 µM (inactive),> 100 µM (inactive),> 100 µM (inactive),> 100 µM (inactive),> 100 µM (inactive),> 100 µM (inactive),> 100 µM (inactive)
